Laboratory results as given in article PMC3108484 (Frontiers in Pharmacology, 2011).

Key:
conscious guinea pigs = assay: Guinea pig colonic transit of carmine red dye; format: in vivo; details: s.c., maximum effect already achieved
healthy human subjects = assay: Human single ascending dose study, bowel movements; format: in vivo
[1] = both, human, in vivo, 0.5 mg
Rat P2Y = assay: Radioligand binding: Rat P2Y; details: [35S]-dATP αS 10 nM
Human A1 = Human A1 (Homo sapiens, UniProt P30542); assay: Radioligand binding: Human A1
Chain of Human A1 (P30542 whole entry): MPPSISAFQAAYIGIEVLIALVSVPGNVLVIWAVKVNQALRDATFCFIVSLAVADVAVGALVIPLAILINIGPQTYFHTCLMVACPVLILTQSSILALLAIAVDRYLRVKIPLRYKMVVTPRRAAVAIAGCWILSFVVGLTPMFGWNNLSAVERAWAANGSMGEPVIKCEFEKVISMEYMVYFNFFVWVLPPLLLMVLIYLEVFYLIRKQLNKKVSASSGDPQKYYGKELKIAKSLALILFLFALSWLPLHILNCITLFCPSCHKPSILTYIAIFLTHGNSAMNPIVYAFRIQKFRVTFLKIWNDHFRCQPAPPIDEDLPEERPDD

Human M5 = Human M5 (Homo sapiens, UniProt P08912); assay: Radioligand binding: Human M5
Human β1 = Human β1 (Homo sapiens, UniProt P08588); assay: Radioligand binding: Human β1
Rat CRF1 = Rat CRF1 (Rattus norvegicus, UniProt P35353); assay: Radioligand binding: Rat CRF1
Human Y1 = Human Y1 (Homo sapiens, UniProt P25929); assay: Radioligand binding: Human Y1
Human Y2 = Human Y2 (Homo sapiens, UniProt P49146); assay: Radioligand binding: Human Y2
Chain of Human Y2 (P49146 whole entry): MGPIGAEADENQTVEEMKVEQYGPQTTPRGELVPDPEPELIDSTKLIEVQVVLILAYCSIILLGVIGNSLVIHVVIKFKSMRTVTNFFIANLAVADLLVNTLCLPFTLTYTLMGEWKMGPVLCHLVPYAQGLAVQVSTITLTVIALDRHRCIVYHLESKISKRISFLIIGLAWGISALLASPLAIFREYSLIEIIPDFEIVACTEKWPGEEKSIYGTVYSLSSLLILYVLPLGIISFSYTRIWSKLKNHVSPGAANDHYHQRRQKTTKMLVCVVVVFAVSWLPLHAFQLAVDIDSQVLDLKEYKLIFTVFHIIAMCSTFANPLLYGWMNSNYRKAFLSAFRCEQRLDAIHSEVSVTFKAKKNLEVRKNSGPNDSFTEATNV

Rat NMDA = Rat NMDA (Rattus norvegicus, UniProt Q00959); assay: Radioligand binding: Rat NMDA; details: read-out: % Inhibition of specific binding (1 μM)
Human COX1 = Human COX1 (Homo sapiens, UniProt P23219); assay: Enzyme inhibition: Human COX1
Chain of Human COX1 (P23219 24-599): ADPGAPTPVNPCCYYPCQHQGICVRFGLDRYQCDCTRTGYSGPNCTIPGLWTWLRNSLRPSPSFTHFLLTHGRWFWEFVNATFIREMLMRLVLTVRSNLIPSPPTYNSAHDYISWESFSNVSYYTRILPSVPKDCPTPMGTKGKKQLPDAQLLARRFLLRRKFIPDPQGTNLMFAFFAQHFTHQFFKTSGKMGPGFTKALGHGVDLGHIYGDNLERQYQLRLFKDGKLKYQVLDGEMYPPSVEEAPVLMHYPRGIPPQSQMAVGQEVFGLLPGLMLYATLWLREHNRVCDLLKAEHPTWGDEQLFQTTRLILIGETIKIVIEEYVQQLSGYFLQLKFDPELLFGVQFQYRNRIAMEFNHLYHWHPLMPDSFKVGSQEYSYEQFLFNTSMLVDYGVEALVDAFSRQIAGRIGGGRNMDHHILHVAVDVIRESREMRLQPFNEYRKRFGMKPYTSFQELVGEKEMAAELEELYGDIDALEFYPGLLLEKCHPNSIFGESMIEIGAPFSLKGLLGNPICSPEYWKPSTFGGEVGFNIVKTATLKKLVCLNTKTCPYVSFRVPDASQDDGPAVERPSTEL

Human PDE4 = assay: Enzyme inhibition: Human PDE4; details: [3H]-cAMP + cAMP 1 μM, TD-8954 1 μM
Human A2A = Human A2A (Homo sapiens, UniProt P29274); assay: Radioligand binding: Human A2A
Chain of Human A2A (P29274 whole entry): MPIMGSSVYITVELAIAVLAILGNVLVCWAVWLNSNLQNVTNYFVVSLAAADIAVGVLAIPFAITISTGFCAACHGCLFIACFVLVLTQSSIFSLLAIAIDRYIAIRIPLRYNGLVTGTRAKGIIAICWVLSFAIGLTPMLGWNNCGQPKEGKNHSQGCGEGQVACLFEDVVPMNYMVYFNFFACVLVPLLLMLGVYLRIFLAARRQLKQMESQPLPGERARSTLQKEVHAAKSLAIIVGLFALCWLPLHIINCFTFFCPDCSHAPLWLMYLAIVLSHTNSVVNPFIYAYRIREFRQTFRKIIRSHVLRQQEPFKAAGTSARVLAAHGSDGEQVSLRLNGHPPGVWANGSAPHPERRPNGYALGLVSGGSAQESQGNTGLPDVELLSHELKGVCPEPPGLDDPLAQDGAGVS

Human AT1 = Human AT1 (Homo sapiens, UniProt P30556); assay: Radioligand binding: Human AT1
Human ETA = Human ETA (Homo sapiens, UniProt P25101); assay: Radioligand binding: Human ETA
Human NK1 = Human NK1 (Homo sapiens, UniProt P25103); assay: Radioligand binding: Human NK1
Chain of Human NK1 (P25103 whole entry): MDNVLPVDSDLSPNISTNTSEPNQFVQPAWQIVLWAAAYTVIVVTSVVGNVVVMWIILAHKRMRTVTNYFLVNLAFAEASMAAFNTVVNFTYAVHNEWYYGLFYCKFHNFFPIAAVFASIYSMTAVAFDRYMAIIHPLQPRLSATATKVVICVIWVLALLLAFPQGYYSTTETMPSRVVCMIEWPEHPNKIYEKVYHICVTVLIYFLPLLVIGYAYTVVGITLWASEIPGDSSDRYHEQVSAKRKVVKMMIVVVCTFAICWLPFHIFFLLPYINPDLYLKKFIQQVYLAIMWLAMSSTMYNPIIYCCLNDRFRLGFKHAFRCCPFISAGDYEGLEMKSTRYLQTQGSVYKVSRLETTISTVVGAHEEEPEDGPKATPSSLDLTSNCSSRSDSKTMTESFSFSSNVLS

Human NK3 = Human NK3 (Homo sapiens, UniProt P29371); assay: Radioligand binding: Human NK3
Chain of Human NK3 (P29371 whole entry): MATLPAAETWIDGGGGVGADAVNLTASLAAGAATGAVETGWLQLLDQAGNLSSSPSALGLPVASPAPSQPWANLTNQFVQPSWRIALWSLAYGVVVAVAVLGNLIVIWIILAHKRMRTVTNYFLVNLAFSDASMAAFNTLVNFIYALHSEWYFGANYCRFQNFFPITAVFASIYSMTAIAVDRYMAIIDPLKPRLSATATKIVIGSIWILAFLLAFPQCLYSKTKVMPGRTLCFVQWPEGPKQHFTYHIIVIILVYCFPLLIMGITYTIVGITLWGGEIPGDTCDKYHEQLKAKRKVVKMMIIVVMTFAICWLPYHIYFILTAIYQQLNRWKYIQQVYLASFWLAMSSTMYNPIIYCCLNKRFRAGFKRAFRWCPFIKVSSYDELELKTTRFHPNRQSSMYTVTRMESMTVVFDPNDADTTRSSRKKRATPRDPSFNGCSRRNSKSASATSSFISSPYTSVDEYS

Human D4.4 = Human D4.4 (Homo sapiens, UniProt P21917); assay: Radioligand binding: Human D4.4
Chain of Human D4.4 (P21917 whole entry): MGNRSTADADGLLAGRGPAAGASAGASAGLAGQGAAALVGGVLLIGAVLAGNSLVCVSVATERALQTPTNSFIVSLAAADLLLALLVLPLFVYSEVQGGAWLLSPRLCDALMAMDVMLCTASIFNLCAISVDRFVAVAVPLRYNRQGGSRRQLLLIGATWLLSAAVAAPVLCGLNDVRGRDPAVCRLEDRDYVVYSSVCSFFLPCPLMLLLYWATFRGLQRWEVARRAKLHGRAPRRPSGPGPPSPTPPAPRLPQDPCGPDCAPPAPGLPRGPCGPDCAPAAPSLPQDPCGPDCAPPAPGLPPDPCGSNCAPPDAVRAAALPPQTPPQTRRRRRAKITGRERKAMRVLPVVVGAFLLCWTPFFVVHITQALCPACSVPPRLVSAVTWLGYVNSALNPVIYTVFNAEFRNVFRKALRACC

Rat kainate = assay: Radioligand binding: Rat kainate; details: [3H]-kainic acid 5 nM
Human 5-HT5a = Human 5-HT5a (Homo sapiens, UniProt P47898); assay: Radioligand binding: Human 5-HT5a
Guinea pig H1 = Guinea pig H1 (Cavia porcellus, UniProt P31389); assay: Radioligand binding: Guinea pig H1
Guinea pig H2 = Guinea pig H2 (Cavia porcellus, UniProt P47747); assay: Radioligand binding: Guinea pig H2
K+ATP channel = K+ATP channel (Rattus norvegicus, UniProt Q09429); assay: Radioligand binding: K+ATP channel; details: read-out: % Inhibition of specific binding (1 μM)
[2] = molecular target: Rat α4β2 nAChR (α-BGTX-insensitive) (Rattus norvegicus, UniProt P09483+P12390); assay: Radioligand binding: Rat α4β2 nAChR
Rat PACAP (PAC1) = Rat PACAP (PAC1) (Rattus norvegicus, UniProt P32215); assay: Radioligand binding: Rat PACAP
Chain of Rat PACAP (PAC1) (P32215 20-523): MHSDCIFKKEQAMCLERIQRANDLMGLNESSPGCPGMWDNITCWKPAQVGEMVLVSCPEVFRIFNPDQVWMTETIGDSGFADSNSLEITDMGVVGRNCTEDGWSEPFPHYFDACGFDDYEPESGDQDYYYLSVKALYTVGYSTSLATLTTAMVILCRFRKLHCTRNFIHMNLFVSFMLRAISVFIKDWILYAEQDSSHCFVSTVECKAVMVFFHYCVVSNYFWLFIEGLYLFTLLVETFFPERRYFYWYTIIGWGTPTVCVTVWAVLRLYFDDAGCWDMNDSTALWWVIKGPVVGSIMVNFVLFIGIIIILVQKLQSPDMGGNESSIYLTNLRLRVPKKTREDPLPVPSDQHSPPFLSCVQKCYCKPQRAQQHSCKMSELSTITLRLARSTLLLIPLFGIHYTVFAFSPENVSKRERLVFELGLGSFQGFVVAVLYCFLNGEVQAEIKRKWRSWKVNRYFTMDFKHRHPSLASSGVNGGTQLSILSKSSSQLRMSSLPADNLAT

Human CCK2 (CCKB) = Human CCK2 (CCKB) (Homo sapiens, UniProt P32239); assay: Radioligand binding: Human CCK2
Chain of Human CCK2 (CCKB) (P32239 whole entry): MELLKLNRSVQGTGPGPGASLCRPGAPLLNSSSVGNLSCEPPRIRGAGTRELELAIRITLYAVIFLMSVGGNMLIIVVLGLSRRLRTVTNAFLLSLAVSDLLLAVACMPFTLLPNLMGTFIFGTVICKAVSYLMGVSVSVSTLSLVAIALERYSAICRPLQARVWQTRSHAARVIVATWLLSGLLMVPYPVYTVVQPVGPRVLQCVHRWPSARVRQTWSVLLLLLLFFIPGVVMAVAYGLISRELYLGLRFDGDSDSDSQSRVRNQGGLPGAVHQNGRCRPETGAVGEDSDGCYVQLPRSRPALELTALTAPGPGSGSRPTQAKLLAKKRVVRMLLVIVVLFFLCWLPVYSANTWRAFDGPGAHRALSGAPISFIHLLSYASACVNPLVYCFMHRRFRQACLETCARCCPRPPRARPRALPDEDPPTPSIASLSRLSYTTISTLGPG

Human δ2 = Human δ2 (Homo sapiens, UniProt P41143); assay: Radioligand binding: Human δ2 opiate receptor
Rat dopamine transporter = Rat dopamine transporter (Rattus norvegicus, UniProt P23977); assay: Radioligand binding: Rat dopamine transporter
Chain of Rat dopamine transporter (P23977 whole entry): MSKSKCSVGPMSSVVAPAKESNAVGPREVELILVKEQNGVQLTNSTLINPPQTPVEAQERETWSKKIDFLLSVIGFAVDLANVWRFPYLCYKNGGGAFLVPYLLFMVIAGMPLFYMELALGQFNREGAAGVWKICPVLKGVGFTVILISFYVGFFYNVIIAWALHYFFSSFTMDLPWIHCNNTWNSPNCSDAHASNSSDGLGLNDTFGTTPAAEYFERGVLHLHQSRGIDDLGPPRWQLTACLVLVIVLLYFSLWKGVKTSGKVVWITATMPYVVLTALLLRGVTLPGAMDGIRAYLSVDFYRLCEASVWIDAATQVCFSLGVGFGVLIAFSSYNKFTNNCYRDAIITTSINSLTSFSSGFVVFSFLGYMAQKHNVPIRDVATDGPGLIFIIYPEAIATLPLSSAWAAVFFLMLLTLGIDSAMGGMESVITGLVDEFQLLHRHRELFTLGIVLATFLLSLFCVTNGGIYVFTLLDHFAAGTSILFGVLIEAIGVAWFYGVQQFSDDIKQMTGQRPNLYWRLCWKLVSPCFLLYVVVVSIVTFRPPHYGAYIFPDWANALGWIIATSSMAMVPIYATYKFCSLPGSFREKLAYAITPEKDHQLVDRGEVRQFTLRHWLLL

Rat GABA (non-selective) = assay: Radioligand binding: Rat GABA; details: [3H]-GABA 10 nM
[3] = molecular target: Mouse sst (non-selective); assay: Radioligand binding: Mouse sst; details: [125I]-Tyr11-somatostatin 0.05 nM
Guinea pig κ kappa = Guinea pig κ kappa (Cavia porcellus, UniProt P41144); assay: Radioligand binding: Guinea pig κ opiate receptor
Chain of Guinea pig κ kappa (P41144 whole entry): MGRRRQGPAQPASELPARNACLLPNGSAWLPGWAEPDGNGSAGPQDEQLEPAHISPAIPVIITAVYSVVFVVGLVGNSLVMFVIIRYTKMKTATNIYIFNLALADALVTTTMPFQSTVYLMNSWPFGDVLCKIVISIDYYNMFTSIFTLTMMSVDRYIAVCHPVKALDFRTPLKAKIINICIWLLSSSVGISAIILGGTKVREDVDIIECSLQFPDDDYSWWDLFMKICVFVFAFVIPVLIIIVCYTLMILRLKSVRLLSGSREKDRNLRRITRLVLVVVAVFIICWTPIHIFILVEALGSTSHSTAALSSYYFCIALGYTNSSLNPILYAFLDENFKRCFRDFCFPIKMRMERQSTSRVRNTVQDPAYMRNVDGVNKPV

[4] = molecular target: Rat Ca2+ channel (L, DHP site); assay: Radioligand binding: Rat Ca2+ channel; details: [3H]-(+)PN 200-110 0.04 nM
[5] = read-out: % Inhibition of specific binding (1 μM)

COC(=O)N1CCC(CN2CCC(CNC(=O)c3cccc4[nH]c(C(C)C)nc34)CC2)CC1 [TD-8954, 4-(4-{[(2-isopropyl-1H-benzoimidazole-4-carbonyl)amino]methyl}-piperidin-1-ylmethyl)piperidine-1-carboxylic acid methyl ester]
lowest dose tested, significantly active on colonic transit (conscious guinea pigs): 0.03 mg/kg
dose producing a maximal response (healthy human subjects; single oral dose): 0.5 mg
lowest dose associated with a prokinetic effect (healthy human subjects; single oral dose): 0.1 mg
time to first bowel movement compared to placebo (healthy human subjects; single oral dose 0.1–20 mg, p < 0.05): statistically significant reduction
free plasma AUC0–24 [1]: 36.2 nM/h
free plasma Cmax [1]: 3.4 nM/h
pKi (Rat P2Y): <6
% Inhibition of specific binding (1 μM) (Rat P2Y; TD-8954 1 μM): 8%
Ki (Human A1): > 1 µM
inhibition at 1 µM (Human A1; [5]): -4%
Ki (Human M5): > 10 µM
Ki (Human β1): > 1 µM
Ki (Rat CRF1): > 1 µM
inhibition at 1 µM (Rat CRF1; [5]): -6%
Ki (Human Y1): > 1 µM
Ki (Human Y2): > 1 µM
inhibition at 1 µM (Human Y2; [5]): -5%
inhibition at 1 µM (Rat NMDA): -6%
IC50 (Human COX1): > 1 µM
inhibition at 1 µM (Human COX1; read-out: % Inhibition of control (1 μM)): 2%
% Inhibition of control (1 μM) (Human PDE4): −19%
Ki (Human A2A): > 1 µM
% Inhibition of specific binding (1 μM) (Human A2A; Human A2A, [3H]-CGS 21680 6 nM, TD-8954 1 μM): 16%
Ki (Human AT1): > 1 µM
inhibition at 1 µM (Human AT1; [5]): 2%
Ki (Human ETA): > 1 µM
Ki (Human NK1): > 1 µM
inhibition at 1 µM (Human NK1; [5]): -2%
Ki (Human NK3): > 1 µM
inhibition at 1 µM (Human NK3; [5]): -3%
Ki (Human D4.4): > 1 µM
inhibition at 1 µM (Human D4.4; [5]): 6%
pKi (Rat kainate): <6
% Inhibition of specific binding (1 μM) (Rat kainate; TD-8954 1 μM): −6%
Ki (Human 5-HT5a): > 1 µM
Ki (Guinea pig H1): > 1 µM
Ki (Guinea pig H2): > 1 µM
inhibition at 1 µM (Guinea pig H2; [5]): 4%
inhibition at 1 µM (K+ATP channel): 5%
Ki [2]: > 1 µM
inhibition at 1 µM [2, 5]: -2%
Ki (Rat PACAP (PAC1)): > 1 µM
inhibition at 1 µM (Rat PACAP (PAC1); [5]): -3%
Ki (Human CCK2 (CCKB)): > 1 µM
inhibition at 1 µM (Human CCK2 (CCKB); [5]): -1%
Ki (Human δ2): > 1 µM
Ki (Rat dopamine transporter): > 1 µM
inhibition at 1 µM (Rat dopamine transporter; [5]): 3%
pKi (Rat GABA (non-selective)): <6
% Inhibition of specific binding (1 μM) (Rat GABA (non-selective); TD-8954 1 μM): −6%
pKi [3]: <6
% Inhibition of specific binding (1 μM) ([3]; TD-8954 1 μM): −6%
Ki (Guinea pig κ kappa): > 1 µM
inhibition at 1 µM (Guinea pig κ kappa; [5]): 22%
pKi [4]: <6
